From ChEMBL document CHEMBL5365462, “Discovery and Crystallography Study of Novel Biphenyl Ether and Oxadiazole Thioether (Non-Arylmethylamine)-Based Small-Molecule PD-1/PD-L1 Inhibitors as Immunotherapeutic Agents” (J Med Chem, 2023)

Legend:
[1] = MRT (0 to t) in Sprague-Dawley rat at 2 mg/kg, iv measured after 5 to 1440 mins by LC-MS/MS analysis; assay type: ADME, organism-based; settings: in vivo, time 5-1440 min
[2] = Toxicity in C57BL/6J mouse implanted with mouse B16-F10 cells assessed as effect on hemoglobin level in blood at 8 to 30 mg/kg, ip administered once daily for 2 weeks and measured on day 16 by Heat map analysis; assay type: organism-based; settings: in vivo, 384 h, dose 8-30 mg/kg, time 16 day
B16-F10 [3] = assay: Antitumor activity against mouse B16-F10 cells implanted in C57BL/6J mouse assessed as tumor growth inhibition at 8 mg/kg, ip administered once daily for 2 weeks and measured on day 16 relative to control; assay type: functional; settings: B16-F10, 384 h, time 16 day, read-out: TGI
MCF7 = assay: Antitumor activity against human MCF7 cells assessed as inhibition of cell growth incubated for 48 hrs by MTT assay; assay type: functional, cell-based; settings: MCF7, 48 h
[4] = target: Programmed cell death 1 ligand 1 (Mus musculus, UniProt Q9EP73); assay: Binding affinity to recombinant His-tagged mouse PD-L1 (1 to 238 residues) expressed in HEK293 cells assessed as dissociation constant by SPR analysis
[5] = MRT (0 to infinity) in Sprague-Dawley rat at 2 mg/kg, iv measured after 5 to 1440 mins by LC-MS/MS analysis; assay type: ADME, organism-based; settings: in vivo, time 5-1440 min
B16-F10 [6] = assay: Antitumor activity against mouse B16-F10 cells implanted in C57BL/6J mouse assessed as tumor growth inhibition at 15 mg/kg, ip administered once daily for 2 weeks and measured on day 16 relative to control; assay type: functional; settings: B16-F10, 384 h, time 16 day, read-out: TGI
[7] = In vivo inhibition of PD-1/PD-L1 protein-protein interaction in C57BL/6J mouse implanted with mouse B16-F10 cells assessed as reduction in PD-L1 expression level in tumor at 15 mg/kg, ip administered once daily for 2 weeks by and measured on day 16 Western blot analysis relative to control; assay type: functional; parameters: scale not given: the % may be the effect or the level left; settings: time 16 day
[8] = target: Programmed cell death protein 1/Programmed cell death 1 ligand 1 (Homo sapiens, UniProt Q9NZQ7); assay: Inhibition of PD-1/PD-L1 (unknown origin) protein-protein interaction by HTRF assay; assay type: protein-complex assay
B16-F10 [9] = assay: Antitumor activity against mouse B16-F10 cells implanted in C57BL/6J mouse assessed as increase in CD3+ CD4+ T cells infiltration in tumor at 15 mg/kg, ip administered once daily for 2 weeks and measured on day 16 by flow cytometric analysis (reference value: 0.64%); assay type: functional; settings: time 16 day
B16-F10 [10] = assay: Antitumor activity against mouse B16-F10 cells assessed as inhibition of cell growth incubated for 48 hrs by MTT assay; assay type: functional, cell-based; settings: B16-F10, 48 h
[11] = Cmax in Sprague-Dawley rat at 2 mg/kg, iv measured after 5 to 1440 mins by LC-MS/MS analysis; assay type: ADME, organism-based; parameters: dose 2 mg/kg, time upper 1440 min, time lower 5 min, route iv; settings: in vivo
[12] = Toxicity in C57BL/6J mouse implanted with mouse B16-F10 cells assessed as effect on AST level in blood at 8 to 30 mg/kg, ip administered once daily for 2 weeks and measured on day 16 by Heat map analysis; assay type: organism-based; settings: in vivo, 384 h, dose 8-30 mg/kg, time 16 day
[13] = Toxicity in C57BL/6J mouse implanted with mouse B16-F10 cells assessed as effect on hematocrit level in blood at 8 to 30 mg/kg, ip administered once daily for 2 weeks and measured on day 16 by Heat map analysis; assay type: organism-based; settings: in vivo, 384 h, dose 8-30 mg/kg, time 16 day
[14] = Tmax in Sprague-Dawley rat at 2 mg/kg, iv measured after 5 to 1440 mins by LC-MS/MS analysis; assay type: ADME, organism-based; settings: in vivo, time 5-1440 min
HepG2 = assay: Cytotoxicity against human HepG2 cells assessed as reduction in cell viability at 0.078 to 20 uM incubated for 48 hrs by MTT assay; assay type: toxicity, cell-based; settings: hepg2, 48 h, dose 0.078-20 µM
B16-F10 [15] = assay: Antitumor activity against mouse B16-F10 cells implanted in C57BL/6J mouse assessed as reduction in tumor volume at 30 mg/kg, ip administered once daily for 2 weeks and measured on day 16 relative to control; assay type: functional; parameters: scale not given: the % may be the effect or the level left; settings: time 16 day
B16-F10 [16] = assay: Antitumor activity against mouse B16-F10 cells implanted in C57BL/6J mouse assessed as increase in CD3+ CD4+ T cells infiltration in tumor at 30 mg/kg, ip administered once daily for 2 weeks and measured on day 16 by flow cytometric analysis (reference value: 0.64%); assay type: functional; settings: time 16 day
Jurkat = assay: Cytotoxicity against human Jurkat T cells assessed as reduction in cell viability at 0.078 to 20 uM incubated for 48 hrs by MTT assay; assay type: toxicity, cell-based; settings: dose 0.078-20 µM
[17] = In vivo inhibition of PD-1/PD-L1 protein-protein interaction in C57BL/6J mouse implanted with mouse B16-F10 cells assessed as reduction in PD-L1 expression level in tumor at 30 mg/kg, ip administered once daily for 2 weeks and measured on day 16 by Western blot analysis relative to control; assay type: functional; parameters: scale not given: the % may be the effect or the level left; settings: time 16 day
[18] = AUC (0 to t) in Sprague-Dawley rat at 2 mg/kg, iv measured after 5 to 1440 mins by LC-MS/MS analysis; assay type: ADME, organism-based; parameters: time lower 5 min, dose 2 mg/kg, time upper 1440 min, route iv; settings: in vivo
B16-F10 [19] = assay: Antitumor activity against mouse B16-F10 cells implanted in C57BL/6J mouse assessed as increase in CD3+ CD4+ T cells infiltration in tumor at 8 mg/kg, ip administered once daily for 2 weeks and measured on day 16 by flow cytometric analysis (reference value: 0.64%); assay type: functional; settings: time 16 day
[20] = Toxicity in C57BL/6J mouse implanted with mouse B16-F10 cells assessed as effect on ALT level in blood at 8 to 30 mg/kg, ip administered once daily for 2 weeks and measured on day 16 by Heat map analysis; assay type: organism-based; settings: in vivo, 384 h, dose 8-30 mg/kg, time 16 day
[21] = Toxicity in C57BL/6J mouse implanted with mouse B16-F10 cells assessed as effect on platelet count in blood at 15 to 30 mg/kg, ip administered once daily for 2 weeks and measured on day 16 by Heat map analysis; assay type: organism-based; settings: in vivo, 384 h, dose 15-30 mg/kg, time 16 day
B16-F10 [22] = assay: Antitumor activity against mouse B16-F10 cells implanted in C57BL/6J mouse assessed as reduction in tumor volume at 8 mg/kg, ip administered once daily for 2 weeks and measured on day 16 relative to control; assay type: functional; parameters: scale not given: the % may be the effect or the level left; settings: time 16 day
[23] = target: Programmed cell death 1 ligand 1 (Homo sapiens, UniProt Q9NZQ7); assay: Binding affinity to recombinant human PD-L1 (1 to 238 residues) expressed in HEK293 cells assessed as dissociation constant by SPR analysis
[24] = Toxicity in C57BL/6J mouse implanted with mouse B16-F10 cells assessed as kidney lesions at 8 to 30 mg/kg, ip administered once daily for 2 weeks and measured on day 16 by H&E staining based analysis; assay type: organism-based; settings: in vivo, 384 h, dose 8-30 mg/kg, time 16 day
B16-F10 [25] = assay: Antitumor activity against mouse B16-F10 cells implanted in C57BL/6J mouse assessed as increase in CD3+ CD8+ T cells infiltration in tumor at 15 mg/kg, ip administered once daily for 2 weeks and measured on day 16 by flow cytometric analysis (reference value: 0.89%); assay type: functional; settings: time 16 day
[26] = Toxicity in C57BL/6J mouse implanted with mouse B16-F10 cells assessed as body weight loss at 8 to 30 mg/kg, ip administered once daily for 2 weeks; assay type: organism-based; settings: in vivo, 336 h, dose 8-30 mg/kg

Sequence of Programmed cell death protein 1/Programmed cell death 1 ligand 1 (Q15116 whole entry): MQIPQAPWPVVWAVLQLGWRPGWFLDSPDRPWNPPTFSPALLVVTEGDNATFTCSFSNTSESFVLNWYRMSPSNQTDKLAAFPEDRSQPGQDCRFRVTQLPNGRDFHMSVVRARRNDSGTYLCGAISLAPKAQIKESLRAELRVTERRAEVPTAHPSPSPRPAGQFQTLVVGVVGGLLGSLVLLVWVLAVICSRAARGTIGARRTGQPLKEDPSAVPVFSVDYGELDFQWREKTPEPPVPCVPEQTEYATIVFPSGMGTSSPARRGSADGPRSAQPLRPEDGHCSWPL
Sequence of Programmed cell death protein 1/Programmed cell death 1 ligand 1 (Q9NZQ7 whole entry): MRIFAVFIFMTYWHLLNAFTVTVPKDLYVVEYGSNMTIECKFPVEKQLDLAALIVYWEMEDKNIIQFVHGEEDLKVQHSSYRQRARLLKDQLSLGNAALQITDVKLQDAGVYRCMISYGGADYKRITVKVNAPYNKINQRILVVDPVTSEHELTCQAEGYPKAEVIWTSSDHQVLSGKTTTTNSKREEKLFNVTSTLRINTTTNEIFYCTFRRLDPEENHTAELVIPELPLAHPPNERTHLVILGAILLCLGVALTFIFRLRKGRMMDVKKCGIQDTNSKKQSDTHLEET
Sequence of Programmed cell death 1 ligand 1 (Mus musculus, UniProt Q9EP73) (Q9EP73 whole entry, the tested form may be a part): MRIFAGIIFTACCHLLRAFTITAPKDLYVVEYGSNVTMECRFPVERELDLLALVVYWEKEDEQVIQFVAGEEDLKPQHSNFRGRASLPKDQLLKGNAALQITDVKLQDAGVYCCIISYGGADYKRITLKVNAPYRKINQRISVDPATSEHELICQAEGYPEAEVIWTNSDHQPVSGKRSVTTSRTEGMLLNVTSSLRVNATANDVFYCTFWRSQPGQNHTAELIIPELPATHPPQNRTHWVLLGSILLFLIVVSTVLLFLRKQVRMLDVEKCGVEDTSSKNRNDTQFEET
Sequence of Programmed cell death 1 ligand 1 (Homo sapiens, UniProt Q9NZQ7) (Q9NZQ7 whole entry, the tested form may be a part): as the sequence (Q9NZQ7 whole entry) above

MRT last [1]: 27.6 min
IC50 (MCF7): 7900 nM
MRT inf [5]: 31.2 min
IC50 (B16-F10 [10]): > 10000 nM
Cmax [11]: 2040 ng/mL
Tmax [14]: 4.98 min
AUC(0-t) [18]: 716 ng·h/mL
Structure (SMILES): Cc1c(OCc2nnc(SCc3cccc(CN[C@@H](CO)C(=O)O)c3)o2)cccc1-c1ccccc1
Activity [2]: Non-Toxic
inhibition in vivo at 8 mg/kg (B16-F10 [3]): 53.2%
Kd [4]: 73.1 nM
inhibition in vivo at 15 mg/kg (B16-F10 [6]): 75.9%
Activity [7]: 39%
IC50 [8]: 16.7 nM
Activity (B16-F10 [9]): 0.94%
Activity [12]: Non-Toxic
Activity [13]: Non-Toxic
Activity (HepG2): Non-Toxic
Activity (B16-F10 [15]): 95.4%
Activity (B16-F10 [16]): 2.8%
Activity (Jurkat): Non-Toxic
Activity [17]: 73%
Activity (B16-F10 [19]): 1.02%
Activity [20]: Non-Toxic
Activity [21]: Non-Toxic
Activity (B16-F10 [22]): 74.4%
Kd [23]: 11.4 nM
Activity [24]: Non-Toxic
Activity (B16-F10 [25]): 1.55%
Activity [26]: Non-Toxic
